# Measurements as given in PMC9959553, “Promising Antifungal Molecules against Mucormycosis Agents Identified from Pandemic Response Box®: In Vitro and In Silico Analyses” (Journal of Fungi, 2023).
# Test system: R. oryzae UCP1295
# Experiment: Screening of the Pandemic Response Box library at 5 µM
# Type: cell-based, Rhizopus oryzae
# Conditions: 48 h, Table S1, mean of the four values
# In short: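 Growth inhibition was read at 600 nm after conidia (2 × 10^5/mL) grew 48 h at 37 °C, 5% CO2, with 5 μM compound in glucose-supplemented (2%), MOPS-buffered RPMI (pH 7.2). Controls were posaconazole at 5 μM and 1% DMSO. The selection cut-off was at least 60% inhibition.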
row,SMILES,"% of growth inhibition, Mean"
1,O=c1nc(N2CCN(CC3CCCCC3)CC2)sc2c([N+](=O)[O-])cc(C(F)(F)F)cc12 [MMV1578885],-14.2%
2,Nc1ccc2oc(=O)ccc2c1I [MMV1581378],-3.7%
3,CCCC1(C2CC2)c2cc(Cl)ccc2NC(=O)N1C (centres unmarked) [MMV1782113],-5.2%
4,Nc1nc2c(ncn2COCCO)c(=O)[nH]1 [MMV001961],-10.2%
5,CCc1ccc(C2CC(C(F)(F)F)n3ncc(C(=O)NCc4ccc(OC)cc4)c3N2)cc1 (centres unmarked) [MMV831201],-4.6%
6,O=C(O)c1sccc1S(=O)(=O)n1ccc2cc(Br)ccc21 [MMV1580855],-1.0%
7,COc1ccc(CNC(=O)C(NS(=O)(=O)c2ccc3nc(C)sc3c2)C(C)C)cc1 (centres unmarked) [MMV303733],-8.6%
8,CCCCN1C[C@H](O)[C@@H](O)[C@H](O)[C@H]1CO [MMV1782098],-8.6%
9,CC(C)=CCC/C(C)=C\CNCCNC1C2CC3CC(C2)CC1C3 (centres unmarked) [MMV687273],-3.3%
10,O=C(Nc1ccc(-c2ccccc2)cc1)C1=C(O)C(Cc2ccccc2)OC1=O (centres unmarked) [MMV1593531],-29.2%
11,Cn1cncc1[C@@](N)(c1ccc(Cl)cc1)c1ccc2c(c1)c(-c1cccc(Cl)c1)cc(=O)n2C [MMV658803],-24.4%
12,COc1cccc(N2CCN(C3=Nc4c(F)cccc4[C@H](CC(=O)O)N3c3cc(C(F)(F)F)ccc3OC)CC2)c1 [MMV690653],-6.7%
13,O=C(Nc1ccccc1)N(Cc1cc(Br)ccc1O)c1ccc(F)cc1 [MMV1581552],-12.1%
14,Cc1[nH]c2ccccc2c1CCNCc1ccc(/C=C/C(=O)NO)cc1 [MMV010036],1.8%
15,CCN(CC)CCCC(C)Nc1ccnc2cc(Cl)ccc12 (centres unmarked) [MMV000008],-3.5%
16,CC1(C)[C@H](C(=O)O)N2C(=O)C[C@H]2S1(=O)=O [MMV637945],-27.5%
17,CCc1cc(Nc2cc(=O)n(CCN3CCN(C(=O)c4ccccc4)CC3)c(=O)[nH]2)ccc1C [MMV1634383],-3.9%
18,COc1c(NC(=O)[C@H]2CC[C@@H](COc3ccc([N+](=O)[O-])cc3)CC2)c(F)cc2c(=O)c(C(=O)O)cn(C3CC3)c12 [MMV1633965],-11.6%
19,O=C(O)C(Cc1c[nH]c2ccccc12)N1C(=O)c2ccccc2C1=O (centres unmarked) [MMV452821],-16.1%
20,NC(=O)c1ccccc1NC(=O)c1ccc(C(=O)Nc2ccccc2C(N)=O)cc1 [MMV508427],-9.9%

row,SMILES,"% of growth inhibition, Mean"
1,Cc1nc2ccc(Oc3ccccc3)cc2c2c1CCN2CCc1ccccc1 [MMV1634399],-16.3%
2,Fc1ccc(-c2nc(-c3c[nH]c4ccc(Br)cc34)[nH]c2-c2ccc(F)cc2)cc1 [MMV1593537],-11.7%
3,O=C(c1ccccc1)N1CCN(c2ccccc2NC(=O)C(Cl)(Cl)Cl)CC1 [MMV001014],-10.6%
4,CCc1cc(O)c(Oc2ccc(C(N)=O)cc2F)cc1F [MMV1578564],-17.4%
5,Cc1nc(Nc2ccc(F)cc2)nc(N2CCc3ccccc3C2C)c1C (centres unmarked) [MMV030787],-5.0%
6,O=C(NNC(=S)Nc1ccc(Cl)cc1)c1ccncc1 [MMV1782227],-24.0%
7,NCc1ccc(S(N)(=O)=O)cc1 [MMV002665],-2.2%
8,CC(C)c1ccc(COc2cccc(-c3cc([S+](C)[O-])c(C#N)c(=O)[nH]3)c2)cc1 (centres unmarked) [MMV1582497],-17.1%
9,C=C(C)n1c(=O)n(Cc2ccccc2C)c2ccccc21 [MMV1579354],-31.3%
10,Nc1nc2c(ncn2/C=C2/CC2(CO)CO)c(=O)[nH]1 [MMV1782210],-16.4%
11,CC[C@H](CO)NCCN[C@H](CC)CO [MMV687801],-13.2%
12,OC(Cn1cncn1)(Cn1cncn1)c1ccc(F)cc1F [MMV002337],-36.5%
13,CN1CCN(c2ccc3[nH]c(-c4ccc5[nH]c(-c6ccc(O)cc6)nc5c4)nc3c2)CC1 [MMV020752],-8.9%
14,O=C(O)c1ccc(-n2nc(-c3ccccc3O)nc2-c2ccccc2O)cc1 [MMV640014],-17.8%
15,CCc1ccccc1OCCN1CCCCCC1 [MMV1633962],-12.2%
16,O=S(=O)(Nc1cccc2cccnc12)c1ccccc1 [MMV1578890],0.6%
17,Cl.NC1(C(=O)O)CCP(=O)(O)CC1 (centres unmarked) [MMV1593538],0.4%
18,c1cnc(NCc2ccc(CNc3ncccn3)cc2)nc1 [MMV1580490],-10.6%
19,O=C(/C=C/n1cnc(-c2cc(C(F)(F)F)cc(C(F)(F)F)c2)n1)NNc1cnccn1 [MMV1593517],-8.5%
20,CC(C)(C)c1ccc(C(Cn2cccc(C(F)(F)F)c2=O)NC2Cc3ccccc3C2)cc1 (centres unmarked) [MMV1634393],-0.4%

row,SMILES,"% of growth inhibition, Mean"
1,CC[N+]1(C/C2=C/CCCCCC2)CCC(NC(=O)C2c3cc(Cl)ccc3Oc3ccc(Cl)cc32)CC1.[I-] (centres unmarked) [MMV1580489],-4.5%
2,Nc1nc(O)c2ncn(COC(CO)CO)c2n1 [MMV001761],-10.5%
3,N[C@@H]1CN(c2c(F)cc3c(=O)c(C(=O)O)cn([C@@H]4C[C@@H]4F)c3c2Cl)CC12CC2 [MMV1579850],-4.9%
4,O=C(O)c1cc(-c2ccc(Br)cc2)nc2ccc(Cl)cc12 [MMV247764],-8.6%
5,CO[C@@]1(NC(=O)Cc2cccs2)C(=O)N2C(C(=O)O)=C(COC(N)=O)CS[C@@H]21 [MMV1578559],-22.5%
6,O=C(O)c1ccc(-c2ccc(O[C@H]3O[C@H](CO)[C@@H](O)[C@H](O)[C@@H]3O)cc2)cc1 [MMV1633970],-12.3%
7,COC(=O)Nc1nc2ccccc2[nH]1 [MMV344625],-13.3%
8,CC1CN(c2ncnc3c2c(-c2ccccc2)cn3-c2ccc(F)cc2)CC(C)O1 (centres unmarked) [MMV093250],-16.0%
9,O=C(CSc1nnc(Br)n1-c1ccc(C2CC2)c2ccccc12)Nc1ccc(C(=O)O)cc1Cl [MMV1782213],-4.3%
10,O=C(NCc1cccc2ccccc12)c1cccs1 [MMV1579845],-15.7%
11,CCCNc1ccc(S(=O)(=O)Nc2cc(C)on2)cc1 [MMV1782216],-18.8%
12,NC(=O)c1c(N)sc2c1CCCCC2 [MMV056052],-8.7%
13,CC(C)Oc1ccc(-c2nc(-c3cccc4c3CC[C@@H]4NCCO)no2)cc1C#N [MMV1580492],-7.3%
14,CC[C@@]1(O)C(=O)OCc2c1cc1n(c2=O)Cc2cc3c([N+](=O)[O-])cccc3nc2-1 [MMV1580796],-1.7%
15,CCCCOC(=O)Nc1cc2nc(C3CCCCC3)[nH]c2cc1N(CC)CC [MMV1578842],-0.4%
16,O=c1ccc2ncc(=O)n3c2n1CC3CN1CCC(NCc2cc3c(cn2)OCCC3)CC1 (centres unmarked) [MMV1578568],-14.8%
17,Fc1ccc2c(/C=C/c3nnn[nH]3)c[nH]c2c1 [MMV1578563],-0.5%
18,NC[C@H]1OB(O)c2c(OCCCO)cccc21 [MMV1578566],-20.6%
19,Nc1nc(C(F)(F)F)cc2c1[nH]c(=O)n2Cc1ccccc1 [MMV1634389],10.3%
